Results from paper PMC12388523, “Flavonoids and Sesquiterpene Lactones from Lychnophora ericoides (Arnica-Do-Cerrado) and Their In Vitro Effects on Multiple Myeloma and Acute Myeloid Leukemia” (Metabolites, 2025).

Columns and labels:
other MM cell lines = test system: other MM cell lines; design: method as in PMID 20088798; settings: cited from earlier work
KMS-12-BM = test system: KMS-12-BM; design: method as in PMID 20088798; settings: sister cell line of KMS-12-PE, read-out: IC50 inhibition of proliferation; cited from earlier work
HS-5 cells [1] = test system: HS-5 cells; design: method as in PMID 36768497; settings: cited from earlier work
HL-60 cells [2] = assay: Proliferation, [3H]-thymidine uptake, HL-60; assay type: cell-based; settings: for IC50: Homo sapiens, HL-60, 72 h, 95% confidence interval in brackets, read-out: IC50 inhibition of proliferation
Experimental: (§1) Acute myeloid leukemia cell line HL-60 and multiple myeloma cell lines AMO-1 and KMS-12-PE were obtained from the German Collection of Microorganisms and Cell Cultures (DSMZ), Braunschweig, Germany, and non-tumorigenic stromal cell line HS-5 was acquired from the American Type Culture Collection (ATCC, Manassas, VA, USA). All cell lines were cultured in RPMI 1640 medium without phenol red (Pan Biotech, Aidenbach, Germany), supplemented with 2 mM glutamine, 100 U/mL penicillin, 100 µg/mL streptomycin (Sigma-Aldrich, St. Louis, MO, USA), and 10% fetal bovine serum (FBS Maximus, Catus Biotech GmbH, Tutzing, Germany) at 37 °C in a humidified atmosphere of 5% CO2/95% air. Cells were fed twice weekly. Logarithmically growing cells were resuspended at 1 × 10^5 cells/mL, plated in triplicate in round-bottom 96-well plates (100 µL per well; Falcon, Becton Dickinson, Franklin Lakes, NJ, USA), and incubated at 37 °C in 5% CO2/95% air for 2 h. Subsequently, the compounds were adjusted in the cell culture medium to reach the final concentrations in a total volume of 150 µL and incubated for an additional 72 h. Cell proliferation was assessed by [^3H]-thymidine uptake. Each well was exposed to 2 µCi [^3H]-thymidine (Hartmann Analytic, Braunschweig, Germany) during the final 12–16 h of incubation. Cells were harvested using a semi-automated device, and [^3H]-thymidine incorporation (expressed in counts per minute, cpm) was measured with a scintillation counter (MicroBeta TriLux, PerkinElmer, Waltham, MA, USA). Metabolic activity was assessed by resazurin staining. Resazurin (Carl Roth, Karlsruhe, Germany) was dissolved in distilled water at a concentration of 0.1 mg/mL, and 15 µL of this solution was added to each well, followed by a 2 h incubation at 37 °C. Relative fluorescence units (RFUs) were measured using a Synergy H1 plate reader equipped with a 560 nm excitation/590 nm emission filter set (BioTek; Agilent, Santa Clara, CA, USA). Proliferation and metabolic activity in the absence of compounds were defined as 100% (control), and the values for compound-treated samples were expressed as percentages relative to the control. Selectivity indices were calculated by dividing the IC50 value of each compound against HS-5 cells through the IC50 values against the investigated cell lines.
(§2) The Wilcoxon Rank Sum Test was used to analyze proliferation and metabolic activity in the absence and presence of varying compound concentrations (NCSS 2007 software, version 07.1.2, Kaysville, UT, USA). A p-value < 0.05 was considered statistically significant. IC50 values were calculated using GraphPad Prism 10.1.2. This software reports 95% confidence intervals instead of standard errors. […] Nonetheless, the figures clearly illustrate the IC50 values due to the narrow concentration range tested.

HS-5 cells [3] = assay: Metabolic activity, resazurin staining, non-malignant HS-5; assay type: cell-based; settings: HS5, HS-5 (non-malignant), 72 h, 95% confidence interval in brackets, read-out: IC50 inhibition of metabolic activity
Experimental: as §1, with “Subsequently, the compounds were adjusted in the cell culture medium to reach the final concentrations in a total volume of 150 µL and incubated for an additional 72 h.” left out, “Each well was exposed to 2 µCi [^3H]-thymidine (Hartmann Analytic, Braunschweig, Germany) during the final 12–16 h of incubation.” left out, “Resazurin (Carl Roth, Karlsruhe, Germany) was dissolved in distilled water at a concentration of 0.1 mg/mL, and 15 µL of this solution was added to each well, followed by a 2 h incubation at 37 °C.” left out
(§3) The Wilcoxon Rank Sum Test was used to analyze proliferation and metabolic activity in the absence and presence of varying compound concentrations (NCSS 2007 software, version 07.1.2, Kaysville, UT, USA). […] IC50 values were calculated using GraphPad Prism 10.1.2. […]

MOLM-13 cells [4] = assay: Metabolic activity, resazurin staining, MOLM-13; assay type: cell-based; settings: for IC50: Homo sapiens, MOLM-13, 72 h, resazurin, 95% confidence interval in brackets, read-out: IC50 inhibition of metabolic activity; for Selectivity index (metabolic activity): IC50 HS-5 / IC50 MOLM-13
Experimental: [The source words this procedure for another cell line and reports this cell line under the same test.] as §1, §2
(§4) Proliferation inhibition often leads to cell death. Therefore, the cytotoxic activity of the compounds was further evaluated using a modified 3-(4,5-dimethylthiazol-2-yl)-2,5-diphenyltetrazolium bromide (MTT) assay, the resazurin (Alamar Blue) assay. Metabolically active cells reduce the non-fluorescent dye resazurin to the fluorescent dye resorufin via mitochondrial reductase activity, which correlates with cell viability. In the first step the metabolic activity of the four isolated flavonoids was investigated, showing a dose-dependent reduction, but to a much lower extent than in the proliferation assays (Table A2). In fact, only 7,3′,4′-trimethoxymyricetin (2) inhibited the metabolic activity of all four cell lines by more than 50% at a concentration of 100 µM.

KMS-12-PE cells [5] = assay: Proliferation, [3H]-thymidine uptake, KMS-12-PE; assay type: cell-based; settings: for IC50: KMS-12-PE, 72 h, 95% confidence interval in brackets, read-out: IC50 inhibition of proliferation; for Selectivity index (proliferation): IC50 HS-5 / IC50 KMS-12-PE
Experimental: as §1, §2

AMO-1 cells [6] = assay: Proliferation, [3H]-thymidine uptake, AMO-1; assay type: cell-based; settings: for IC50: AMO-1, 72 h, 95% confidence interval in brackets, read-out: IC50 inhibition of proliferation; for Selectivity index (proliferation): IC50 HS-5 / IC50 AMO-1
Experimental: as §1, §2

HL-60 cells [7] = assay: Metabolic activity, resazurin staining, HL-60; assay type: cell-based; settings: for IC50: Homo sapiens, HL-60, 72 h, resazurin, 95% confidence interval in brackets, read-out: IC50 inhibition of metabolic activity; for Selectivity index (metabolic activity): IC50 HS-5 / IC50 HL-60
Experimental: as §1, §2, §4

HS-5 cells [8] = assay: Proliferation, [3H]-thymidine uptake, non-malignant HS-5; assay type: cell-based; settings: HS5; HS-5 (non-malignant), 72 h, 95% confidence interval in brackets; read-out: IC50 inhibition of proliferation
Experimental: as §1, with “Subsequently, the compounds were adjusted in the cell culture medium to reach the final concentrations in a total volume of 150 µL and incubated for an additional 72 h.” left out, “Each well was exposed to 2 µCi [^3H]-thymidine (Hartmann Analytic, Braunschweig, Germany) during the final 12–16 h of incubation.” left out, “Resazurin (Carl Roth, Karlsruhe, Germany) was dissolved in distilled water at a concentration of 0.1 mg/mL, and 15 µL of this solution was added to each well, followed by a 2 h incubation at 37 °C.” left out
as §3

KB cell line = test system: KB cell line; design: method as in PMID 17089326; settings: cited from earlier work
AMO-1 cells [9] = assay: Metabolic activity, resazurin staining, AMO-1; assay type: cell-based; settings: for IC50: Homo sapiens, AMO1, AMO-1, 72 h, resazurin, 95% confidence interval in brackets, read-out: IC50 inhibition of metabolic activity; for Selectivity index (metabolic activity): IC50 HS-5 / IC50 AMO-1
Experimental: as §1, §2, §4

KMS-12-PE cells [10] = assay: Metabolic activity, resazurin staining, KMS-12-PE; assay type: cell-based; settings: for IC50: Homo sapiens, KMS-12-PE, 72 h, resazurin, 95% confidence interval in brackets, read-out: IC50 inhibition of metabolic activity; for Selectivity index (metabolic activity): IC50 HS-5 / IC50 KMS-12-PE
Experimental: as §1, §2, §4

BC cell line = test system: BC cell line; design: method as in PMID 17089326; settings: cited from earlier work
MOLM-13 cells [11] = assay: Proliferation, [3H]-thymidine uptake, MOLM-13; assay type: cell-based; settings: for IC50: Homo sapiens, MOLM-13, 72 h, 95% confidence interval in brackets, read-out: IC50 inhibition of proliferation
Experimental: [The source words this procedure for another cell line and reports this cell line under the same test.] as §1, §2

NF-κB p65 = test system: NF-κB p65; design: method as in PMID 22685350; settings: read-out: concentration inhibiting NF-κB p65; cited from earlier work
[12] = test system: human colon cancer cell line HT-29; design: method as in PMID 22685350; settings: cited from earlier work
KMS-12-PE = settings: 10 nM; cited from earlier work

IC50 (HL-60 cells [2])	IC50 (MOLM-13 cells [4])	IC50 (HL-60 cells [7])	IC50 (MOLM-13 cells [11])	SMILES	IC50 (HS-5 cells [3])	Selectivity index (metabolic activity) (MOLM-13 cells [4])	IC50 (KMS-12-PE cells [5]; Homo sapiens)	Selectivity index (proliferation) (KMS-12-PE cells [5])	IC50 (AMO-1 cells [6]; Homo sapiens, AMO1, 72 h)	Selectivity index (proliferation) (AMO-1 cells [6])	Selectivity index (metabolic activity) (HL-60 cells [7])	IC50 (HS-5 cells [8])	IC50 (AMO-1 cells [9])	Selectivity index (metabolic activity) (AMO-1 cells [9])	IC50 (KMS-12-PE cells [10])	Selectivity index (metabolic activity) (KMS-12-PE cells [10])	further results
				Nc1cccc2c1CN(C1CCC(=O)NC1=O)C2=O (centres unmarked) [lenalidomide]													IC50 concentrations (in words) (other MM cell lines): high µM range; IC50 (KMS-12-BM): 57 nM
				N.N.[Cl][Pt][Cl] [Cisplatin]													concentration needed to inhibit HS-5 cells (HS-5 cells [1]): above 1 µM
1200 nM	1300 nM	1900 nM	1100 nM	C=C1C(=O)O[C@@H]2/C=C(/CO)C3=CC(=O)[C@@](C)(C[C@H](OC(=O)/C(C)=C\C)[C@@H]12)O3 [Compound 6, centratherin]	4500 nM	3.5	2200 nM	1.4	2200 nM	1.1	2.4	2500 nM	2400 nM	1.9	2700 nM	1.6	Selectivity index (proliferation) (HL-60 cells [2]; IC50 HS-5 / IC50 HL-60): 2.1; IC50 (KMS-12-PE cells [5]): 1800 nM; IC50 (KB cell line): < 300 nM; IC50 (BC cell line): < 300 nM; Selectivity index (proliferation) (MOLM-13 cells [11]; IC50 HS-5 / IC50 MOLM-13): 2.2
1300 nM	1800 nM	2900 nM	1400 nM	C=C1C(=O)O[C@@H]2/C=C(/C)C3=CC(=O)[C@@](C)(C[C@H](OC(=O)/C(C)=C\C)[C@@H]12)O3 [Compound 7, lychnopholide]	4900 nM	2.8	2600 nM	1.7	1800 nM	2.0	1.7	4300 nM	3400 nM	1.4	4000 nM	1.2	IC50 (NF-κB p65): 2900 nM; IC50 [12]: 1400 nM; IC50 (AMO-1 cells [6]): 2200 nM
				COc1cccc2c1C(=O)c1c(O)c3c(c(O)c1C2=O)C[C@@](O)(C(=O)CO)C[C@@H]3O[C@H]1C[C@H](N)[C@H](O)[C@H](C)O1 [doxorubicin]													proliferation inhibited to (KMS-12-PE): 45.5%
